The supplement of paper PMC10307832

Columns and labels:
Experiment in all cases: relative viability (nuclei count vs DMSO), 5 days (fraction); higher = more cells survive
Motesanib + Trametinib = compound: CC1(C)CNc2cc(NC(=O)c3cccnc3NCc3ccncc3)ccc21 [Motesanib] + CC(=O)Nc1cccc(-n2c(=O)n(C3CC3)c(=O)c3c(Nc4ccc(I)cc4F)n(C)c(=O)c(C)c32)c1 [Trametinib] (partner 0.02 µM)
Outline: (§1)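 Nuclei were stained with Hoechst during a one-step fixation (final 0.05% Triton X-100, 1% formaldehyde, 1 ug/ml Hoechst) carried out 5 days after dosing, then counted on 4× images. The cells, lung cancer lines in 1536-well plates, had been dosed by pin tool the day after seeding with one drug alone or a fixed anchor-drug dose plus five library-drug doses (not always all listed) in √10 steps. Relative viability is the nuclei count in treated wells divided by that in vehicle wells, and each value is the median of duplicate plates.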

[1] = compound: C[C@@]1(C(=O)Nc2ccc(F)nc2)CCCN1c1nc(Nc2cc(C3CC3)n[nH]2)c2cccn2n1
Outline: (§2)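 Lung cancer cell lines received five library-drug doses (not always all listed) spaced by √10, pinned on vehicle-anchored 1536-well plates after an overnight stay at 37 °C. Five days later, with no medium change, nuclei were Hoechst-stained, imaged at 4× and counted with MetaXpress. Viability is treated-well nuclei relative to vehicle-well nuclei, as a median across plates. Passing plates had control CV below 25% and at least one doubling.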

Motesanib = compound: CC1(C)CNc2cc(NC(=O)c3cccnc3NCc3ccncc3)ccc21 [Motesanib]
Outline: as §2

[2] = compound: C[C@@]1(C(=O)Nc2ccc(F)nc2)CCCN1c1nc(Nc2cc(C3CC3)n[nH]2)c2cccn2n1 + CC1(C)CCC(c2ccc(Cl)cc2)=C(CN2CCN(c3ccc(C(=O)NS(=O)(=O)c4ccc(N[C@H](CCN5CCOCC5)CSc5ccccc5)c(S(=O)(=O)C(F)(F)F)c4)cc3)CC2)C1 [Navitoclax] (partner 0.5 µM)
Outline: as §1

Cell Line | relative viability (Motesanib + Trametinib; first compound 0.01 µM) | relative viability (Motesanib + Trametinib; first compound 0.3162 µM) | relative viability (Motesanib + Trametinib; first compound 1 µM) | relative viability ([1]; 0.04 µM) | relative viability ([1]; 0.1265 µM) | relative viability ([1]; 0.4 µM) | relative viability ([1]; 1.265 µM) | relative viability (Motesanib; 0.01 µM) | relative viability (Motesanib; 0.03162 µM) | relative viability (Motesanib; 0.1 µM) | relative viability (Motesanib; 0.3162 µM) | relative viability (Motesanib; 1 µM) | relative viability (Motesanib + Trametinib; first compound 0.03162 µM) | relative viability (Motesanib + Trametinib; first compound 0.1 µM) | relative viability ([2]; first compound 0.04 µM) | relative viability ([2]; first compound 0.1265 µM) | relative viability ([2]; first compound 1.265 µM) | relative viability ([2]; first compound 0.4 µM)
NCI-H1648 | 0.433 | 0.566 | 0.471 | 0.837 | 0.57 | 0.499 | 0.636 | 0.744 | 0.658 | 0.71 | 1.1 | 0.556 | – | – | – | – | – | –
SK-MES-1 | 0.575 | 0.565 | 0.617 | 1.03 | 0.955 | 0.796 | 0.921 | 1.01 | 1.02 | 1.06 | 1.01 | 1.02 | 0.587 | 0.593 | 1.3 | 0.995 | 1.1 | –
HCC-366 | 0.396 | 0.385 | 0.334 | 1 | 0.98 | 1.03 | 0.753 | 1.04 | 1.01 | 0.991 | 1.04 | 1.07 | 0.302 | 0.282 | 1.12 | 0.966 | 1.19 | 0.688
201T | 0.743 | 0.722 | 0.742 | 0.955 | 0.833 | 0.682 | 0.796 | 0.982 | 0.971 | 1.02 | 0.987 | 0.963 | 0.71 | 0.736 | 1.15 | 1.09 | 1.16 | 1.11
HCC-827 | 0.442 | 0.541 | 0.623 | 1.02 | 1.01 | 0.968 | 1.07 | 1.09 | 1.08 | 1.06 | 1.07 | 1.09 | 0.593 | 0.505 | 1.02 | 1 | 1 | 1.01
NCI-H647 | 0.452 | 0.427 | 0.491 | 1.05 | 0.869 | 0.848 | 0.86 | 0.827 | 1 | 0.93 | 1.06 | 0.988 | 0.533 | 0.42 | 1.1 | 0.989 | 1.14 | 0.894
NCI-H2023 | 0.666 | 0.589 | 0.569 | 0.881 | 0.613 | 0.547 | 0.394 | 1.02 | 0.906 | 0.955 | 1.01 | 0.979 | 0.339 | 0.574 | 0.89 | 0.703 | 0.702 | 0.654
NCI-H520 | 0.516 | 0.655 | 0.627 | 0.977 | 0.915 | 0.953 | 0.99 | 0.931 | 1.03 | 0.971 | 1.05 | 0.906 | 0.561 | 0.68 | 1.16 | 0.988 | 1.11 | 1.04
RERF-LC-KJ | 0.88 | 0.845 | 0.909 | 0.937 | 0.797 | 0.828 | 0.838 | 0.899 | 0.981 | 1 | 0.952 | 1.01 | 0.875 | 0.805 | 0.842 | 0.579 | 0.592 | 0.846
A-427 | 0.742 | 0.775 | 0.762 | 1.09 | 0.944 | 0.889 | 0.797 | 0.944 | 1.01 | 0.894 | 1.03 | 1.06 | 0.702 | 0.774 | 0.885 | 0.988 | 0.915 | 1.03
NCI-H441 | 0.41 | 0.577 | 0.472 | 0.719 | 0.549 | 0.664 | 0.703 | 1.02 | 1.06 | 0.981 | 1.08 | 1.16 | 0.435 | 0.463 | 0.363 | 0.413 | 0.505 | 0.116
NCI-H1703 | – | – | – | 0.97 | 0.807 | 0.716 | 0.778 | 0.911 | 0.901 | 0.52 | 0.286 | 0.236 | – | – | 1.25 | 1.02 | 0.743 | 0.783
NCI-H1792 | 0.511 | 0.528 | 0.442 | 0.602 | 0.423 | 0.383 | 0.295 | 0.742 | 0.805 | 0.908 | 0.918 | 1.12 | 0.37 | 0.43 | 0.422 | 0.36 | 0.393 | 0.464
Calu-6 | – | – | – | 1.11 | 0.948 | 0.884 | 0.844 | 1 | 0.98 | 1 | 1.05 | 0.987 | – | – | 0.83 | 0.637 | 0.141 | 0.62
SK-LU-1 | 0.424 | 0.536 | 0.544 | 0.979 | 0.938 | 0.854 | 0.918 | 0.979 | 1.05 | 1.12 | 1.16 | 1.14 | 0.591 | 0.476 | 0.958 | 0.689 | 0.42 | 0.816
PC-3 [JPC-3] | 0.745 | 0.779 | 0.703 | 1.04 | 0.937 | 1.02 | 1.02 | 1.05 | 1.03 | 1.05 | 1.03 | 1.05 | 0.676 | 0.795 | 0.777 | 0.716 | 0.743 | 0.789
EMC-BAC-2 | 0.756 | 0.797 | 0.948 | 0.848 | 0.766 | 0.642 | 0.593 | 0.964 | 1.01 | 0.987 | 1.05 | 0.95 | 0.909 | 0.861 | 1.13 | 1.12 | 1.22 | 0.947

Cell Line | relative viability (Motesanib + Trametinib; first compound 0.01 µM) | relative viability (Motesanib + Trametinib; first compound 0.3162 µM) | relative viability (Motesanib + Trametinib; first compound 1 µM) | relative viability ([1]; 0.04 µM) | relative viability ([1]; 0.1265 µM) | relative viability ([1]; 0.4 µM) | relative viability ([1]; 1.265 µM) | relative viability (Motesanib; 0.01 µM) | relative viability (Motesanib; 0.03162 µM) | relative viability (Motesanib; 0.1 µM) | relative viability (Motesanib; 0.3162 µM) | relative viability (Motesanib; 1 µM) | relative viability (Motesanib + Trametinib; first compound 0.03162 µM) | relative viability (Motesanib + Trametinib; first compound 0.1 µM) | relative viability ([2]; first compound 0.04 µM) | relative viability ([2]; first compound 0.1265 µM) | relative viability ([2]; first compound 1.265 µM) | relative viability ([2]; first compound 0.4 µM)
LK-2 | 0.662 | 0.87 | 0.811 | 0.623 | 1.06 | 0.508 | 0.636 | 1.05 | 0.945 | 0.914 | 1.05 | 1.02 | 0.71 | 0.696 | – | 0.843 | 0.494 | 0.368
NCI-H2126 | 0.58 | 0.543 | 0.547 | 0.882 | 0.614 | 0.553 | 0.599 | 1.03 | 1.04 | 1.01 | 1.04 | 1.07 | 0.579 | 0.579 | 0.669 | 0.725 | 0.761 | 0.591
NCI-H3122 | 0.218 | 0.211 | 0.197 | 0.979 | 0.986 | 0.99 | 0.962 | 0.98 | 1.02 | 1.04 | 1.05 | 1.05 | 0.227 | 0.229 | 1.05 | 1.06 | 1.02 | 1.06
NCI-H1299 | – | – | – | 1.05 | 0.954 | 1.02 | 1.04 | 1.01 | 0.999 | 1.04 | 1.02 | 1.05 | – | – | 1.08 | 0.976 | 1.02 | 1.04
LCLC-103H | 0.674 | 0.744 | 0.682 | 0.896 | 0.922 | 0.799 | 0.885 | 0.914 | 0.958 | 0.974 | 1.02 | 1.06 | 0.707 | 0.659 | – | – | – | –
ABC-1 | – | – | – | 0.884 | 0.738 | 0.51 | 0.507 | 0.919 | 0.938 | 0.863 | 1.09 | 0.97 | – | – | – | – | – | –
NCI-H650 | 0.916 | 1.02 | 1.06 | 0.841 | 0.649 | 0.784 | 0.585 | 0.976 | 1.04 | 0.992 | 1.07 | 0.907 | 1.07 | 0.946 | – | – | – | –
SW 900 | 0.855 | 0.683 | 0.848 | 0.746 | 0.727 | 0.81 | 0.673 | 0.834 | 0.782 | 0.809 | 0.9 | 0.799 | 0.764 | 0.938 | – | – | – | –
NCI-H661 | 0.485 | 0.547 | 0.571 | 1.04 | 1.04 | 1.01 | 0.875 | 0.972 | 1.02 | 0.985 | 1.04 | 0.964 | 0.547 | 0.606 | – | – | – | –
NCI-H1563 | – | – | – | 1.04 | 0.918 | 0.805 | 0.934 | 1.04 | 0.973 | 1.09 | 0.953 | 0.994 | – | – | – | – | – | –
A549 | – | – | – | 0.869 | 0.693 | 0.509 | 0.589 | 0.951 | 0.958 | 1 | 1.01 | 1.02 | – | – | 0.95 | 0.902 | 0.688 | 0.742
NCI-H2342 | 0.933 | 0.77 | 0.959 | 1.16 | 0.863 | 0.805 | 0.7 | 0.902 | 0.976 | 1.05 | 0.928 | 1.06 | 0.715 | 0.907 | – | – | – | –
NCI-H1623 | – | – | – | 0.809 | 0.79 | 0.678 | 0.622 | 1.06 | 1.08 | 0.901 | 0.964 | 0.926 | – | – | – | – | – | –
NCI-H522 | 0.815 | 0.831 | 0.84 | 0.925 | 0.836 | 0.754 | 0.878 | 0.939 | 1.01 | 1.06 | 1.06 | 1.07 | 0.848 | 0.823 | – | – | – | –
IA-LM | – | – | – | 1.05 | 1 | 0.863 | 0.861 | 0.927 | 1.03 | 0.957 | 1.04 | 0.941 | – | – | 0.983 | 0.904 | 0.593 | 0.746
NCI-H358 | 0.13 | 0.163 | 0.138 | 0.752 | 0.46 | 0.237 | 0.326 | 0.973 | 0.948 | 0.959 | 1.16 | 1.2 | 0.137 | 0.129 | – | – | – | –
EBC-1 | – | – | – | 1.01 | 0.772 | 0.769 | 0.664 | 1.01 | 0.927 | 1.01 | 1.03 | 0.954 | – | – | 0.342 | 0.315 | 0.197 | 0.315
